How the values were obtained:
recombinant mGluR1 = molecular target: T1, recombinant mGluR1 (Homo sapiens, UniProt Q13255); assay: Assay of Group I receptor antagonist activity (FLIPR [Ca2+]i mobilization; secondary IP3 turnover) in cells expressing mGluR1; assay type: cell-based
T1 construct: expressed in transfected cells
Procedure: (§1) For FLIPR analysis, cells expressing human mGluR5d or recombinant mGluR1 as described in WO97/05252 were seeded on collagen coated clear bottom 96-well plates with black sides and analysis of [Ca^2+]i mobilization was done 24 h after seeding. FLIPR experiments were done using a laser setting of 0.800 W and a 0.4 second CCD camera shutter speed. Each FLIPR experiment was initiated with 160 μl of buffer present in each well of the cell plate. After each addition of the compound, the fluorescence signal was sampled 50 times at 1 second intervals followed by 3 samples at 5 second intervals. Responses were measured as the peak height of the response within the sample period. EC50 and IC50 determinations were made from data obtained from 8-point concentration response curves (CRC) performed in duplicate. Agonist CRC were generated by scaling all responses to the maximal response observed for the plate. […]
(§2) We have validated a secondary functional assay for mGluR5d or recombinant mGluR1 as described in WO97/05252 based on Inositol Phosphate (IP3) turnover. IP3 accumulation is measured as an index of receptor mediated phospholipase C turnover. […] Antagonist activity was determined by pre-incubating test compounds for 15 min, then incubating in the presence of glutamate (80 μM) or DHPG (30 μM) for 30 min. […]

human mGluR5d = molecular target: T2, human mGluR5d (Homo sapiens, UniProt P41594); assay: Assay of Group I receptor antagonist activity (FLIPR [Ca2+]i mobilization; secondary IP3 turnover) in cells expressing mGluR5d; assay type: cell-based; conditions: read-out: mGluR5 IC50
T2 construct: expressed in transfected cells
T2 sequence (P41594 21-942 isoform P41594-3 limits assumed): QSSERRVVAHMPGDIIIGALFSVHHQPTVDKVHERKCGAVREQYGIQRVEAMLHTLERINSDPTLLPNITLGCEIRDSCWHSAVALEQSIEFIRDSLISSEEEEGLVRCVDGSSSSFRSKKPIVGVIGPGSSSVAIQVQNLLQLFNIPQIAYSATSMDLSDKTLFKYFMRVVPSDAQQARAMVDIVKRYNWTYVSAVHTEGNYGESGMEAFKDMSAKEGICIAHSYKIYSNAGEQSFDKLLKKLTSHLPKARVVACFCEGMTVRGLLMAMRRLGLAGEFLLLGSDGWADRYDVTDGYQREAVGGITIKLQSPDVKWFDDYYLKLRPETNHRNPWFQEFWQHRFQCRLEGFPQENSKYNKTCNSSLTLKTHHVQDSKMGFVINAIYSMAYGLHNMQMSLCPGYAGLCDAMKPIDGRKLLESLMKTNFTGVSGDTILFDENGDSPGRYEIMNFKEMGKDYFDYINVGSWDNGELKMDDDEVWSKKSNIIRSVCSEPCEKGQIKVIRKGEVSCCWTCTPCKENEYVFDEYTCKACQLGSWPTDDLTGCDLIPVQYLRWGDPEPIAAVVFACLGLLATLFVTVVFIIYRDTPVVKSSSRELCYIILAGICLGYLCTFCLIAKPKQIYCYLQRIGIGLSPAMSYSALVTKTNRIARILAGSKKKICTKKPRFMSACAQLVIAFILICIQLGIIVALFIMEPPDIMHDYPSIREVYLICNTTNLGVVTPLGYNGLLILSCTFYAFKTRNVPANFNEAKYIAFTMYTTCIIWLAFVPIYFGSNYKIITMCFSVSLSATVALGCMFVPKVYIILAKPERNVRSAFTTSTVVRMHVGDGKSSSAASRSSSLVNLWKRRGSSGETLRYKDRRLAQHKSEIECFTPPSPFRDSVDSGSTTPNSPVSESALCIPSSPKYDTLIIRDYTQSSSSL
Procedure: as §1, §2

T1 sequence (Q13255 19-1194): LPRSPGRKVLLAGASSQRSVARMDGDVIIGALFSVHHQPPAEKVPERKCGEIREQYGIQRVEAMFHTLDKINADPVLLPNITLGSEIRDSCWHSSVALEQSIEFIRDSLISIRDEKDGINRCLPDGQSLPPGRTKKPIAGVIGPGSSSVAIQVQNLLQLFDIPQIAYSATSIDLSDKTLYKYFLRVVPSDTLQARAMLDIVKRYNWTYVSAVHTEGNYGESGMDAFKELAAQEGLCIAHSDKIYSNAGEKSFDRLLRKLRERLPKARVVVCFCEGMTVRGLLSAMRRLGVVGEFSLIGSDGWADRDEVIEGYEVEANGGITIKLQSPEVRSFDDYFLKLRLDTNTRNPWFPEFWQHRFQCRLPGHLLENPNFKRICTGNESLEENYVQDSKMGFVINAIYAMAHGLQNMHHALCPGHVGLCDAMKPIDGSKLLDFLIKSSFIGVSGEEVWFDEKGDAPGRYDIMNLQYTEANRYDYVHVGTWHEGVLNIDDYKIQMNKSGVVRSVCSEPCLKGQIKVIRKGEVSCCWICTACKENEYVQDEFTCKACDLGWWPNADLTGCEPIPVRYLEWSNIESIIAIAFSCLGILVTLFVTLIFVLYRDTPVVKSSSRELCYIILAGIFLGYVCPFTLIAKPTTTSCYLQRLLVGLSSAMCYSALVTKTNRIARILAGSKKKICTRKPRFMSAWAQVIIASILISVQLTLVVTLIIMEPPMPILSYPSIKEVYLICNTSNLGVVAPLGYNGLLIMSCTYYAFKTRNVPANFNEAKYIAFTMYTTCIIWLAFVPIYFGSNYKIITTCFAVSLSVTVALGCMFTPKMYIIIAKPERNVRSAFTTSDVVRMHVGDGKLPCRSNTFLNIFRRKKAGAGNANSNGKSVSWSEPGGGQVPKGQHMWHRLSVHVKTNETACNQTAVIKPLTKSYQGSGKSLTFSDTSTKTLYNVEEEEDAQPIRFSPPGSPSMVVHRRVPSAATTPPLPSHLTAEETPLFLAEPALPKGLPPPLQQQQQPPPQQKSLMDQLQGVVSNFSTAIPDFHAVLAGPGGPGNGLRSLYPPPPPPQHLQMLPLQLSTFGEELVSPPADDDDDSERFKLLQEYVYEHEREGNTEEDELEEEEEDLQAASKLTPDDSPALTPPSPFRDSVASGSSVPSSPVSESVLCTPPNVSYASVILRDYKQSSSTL

IC50 (recombinant mGluR1): 0.052 µM | IC50 (human mGluR5d): 7.29 µM
SMILES: CC1CCc2nc(C(=O)N[C@H]3CC[C@H](C)CC3)cnc2C1 (relative stereo) [6-methyl-N-(trans-4-methylcyclohexyl)-5,6,7,8-tetrahydroquinoxaline-2-carboxamide]

Reference: patent US20050004130A1, “New metabotropic glutamate receptor compounds” (AstraZeneca and NPS Pharmaceuticals, Inc., priority 2003, published 2005)
